From patent publication US11173151B2, “Substituted triazole derivatives and uses thereof” (BAYER AKTIENGESELLSCHAFT, priority 2017, dated 2021)
Where two headings read alike, the source gives them in different places.

Assays:
human V1a receptor = molecular target: T1, human V1a receptor (Homo sapiens, UniProt P37288); experiment: Cellular in vitro assay for determining vasopressin receptor activity, V1a receptor cell line (CHO, aequorin luminescence); format: cell-based; details: for IC50: CHO cell line transfected with human V1a receptor, [Arg]-vasopressin at EC50 concentration, read-out: IC50 hV1a; for ratio IC50 hV2/hV1a: selectivity ratio IC50 hV2 / IC50 hV1a
T1 construct: expressed in transfected cells; host or cells: CHO K1 (ATCC), also stably transfected with a modified aequorin
In short: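 Luminescence from reconstituted aequorin, reporting intracellular calcium release, was measured immediately after adding [Arg]-vasopressin at EC50 concentration to CHO K1 cells pretreated 10 minutes with graded compound concentrations. Inhibition gave IC50 values.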

human V2 receptor = molecular target: T2, human V2 receptor (Homo sapiens, UniProt P30518); experiment: Cellular in vitro assay for determining vasopressin receptor activity, V2 receptor cell line (CHO, CRE-luciferase); format: cell-based; details: CHO cell line transfected with human V2 receptor, [Arg8]-vasopressin at EC50 concentration, read-out: IC50 hV2
T2 construct: expressed in transfected cells; host or cells: CHO K1 (ATCC) expressing firefly luciferase under a CRE-responsive promoter
T2 sequence (P30518 whole entry): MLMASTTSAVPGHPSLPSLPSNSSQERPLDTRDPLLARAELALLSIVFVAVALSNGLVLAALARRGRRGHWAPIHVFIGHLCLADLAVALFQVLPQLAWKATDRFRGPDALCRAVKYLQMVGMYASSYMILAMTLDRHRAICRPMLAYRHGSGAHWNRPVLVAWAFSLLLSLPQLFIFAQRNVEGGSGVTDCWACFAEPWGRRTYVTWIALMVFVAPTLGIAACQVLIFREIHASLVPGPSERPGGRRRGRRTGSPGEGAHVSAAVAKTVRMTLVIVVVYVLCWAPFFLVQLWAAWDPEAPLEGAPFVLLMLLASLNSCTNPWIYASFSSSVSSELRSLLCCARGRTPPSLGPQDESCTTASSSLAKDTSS

T1 sequence (P37288 whole entry): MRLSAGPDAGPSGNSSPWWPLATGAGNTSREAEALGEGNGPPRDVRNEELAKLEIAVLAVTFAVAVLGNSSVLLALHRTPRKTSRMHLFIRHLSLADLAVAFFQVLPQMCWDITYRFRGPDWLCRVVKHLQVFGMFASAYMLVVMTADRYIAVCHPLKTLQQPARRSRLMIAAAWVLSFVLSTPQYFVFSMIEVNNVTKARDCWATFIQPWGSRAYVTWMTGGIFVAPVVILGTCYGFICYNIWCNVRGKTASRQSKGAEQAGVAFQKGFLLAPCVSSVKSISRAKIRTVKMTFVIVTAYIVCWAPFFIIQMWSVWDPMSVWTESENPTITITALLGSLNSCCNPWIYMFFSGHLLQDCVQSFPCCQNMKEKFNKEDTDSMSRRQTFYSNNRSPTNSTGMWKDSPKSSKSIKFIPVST

Compound | IC50 (human V1a receptor) [nM] | ratio IC50 hV2/hV1a (human V1a receptor) | IC50 (human V2 receptor; 3 hours) [nM] | IC50 (human V2 receptor) [nM]
O=C(NCC1CC1)c1cccc(Cl)c1-n1cnc(Cn2nc(-c3ccc(Cl)cc3)n(C[C@@H](O)C(F)(F)F)c2=O)n1 [Example 394, 3-Chloro-2-[3-({3-(4-chlorophenyl)-5-oxo-4-[(2R)-3,3,3-trifluoro-2-hydroxypropyl]-4,5-dihydro-1H-1,2,4-triazol-1-yl}methyl)-1H-1,2,4-triazol-1-yl]-N-(cyclopropylmethyl)benzamide] | 295 | 14.9 | 4400 | –
NC(=O)[C@@H]1CC(F)(F)CN1C(=O)c1cccc(Cl)c1-n1cnc(Cn2nc(-c3ccc(Cl)cc3)n(C[C@@H](O)C(F)(F)F)c2=O)n1 [Example 396, 1-{3-Chloro-2-[3-({3-(4-chlorophenyl)-5-oxo-4-[(2R)-3,3,3-trifluoro-2-hydroxypropyl]-4,5-dihydro-1H-1,2,4-triazol-1-yl}methyl)-1H-1,2,4-triazol-1-yl]benzoyl}-4,4-difluoro-L-prolinamide] | 301 | 106.3 | 32000 | –
O=C(c1cccc(Cl)c1-n1cnc(Cn2nc(-c3ccc(Cl)cc3)n(C[C@@H](O)C(F)(F)F)c2=O)n1)N1CCC(F)(F)C1 [Example 398, 2-[(1-{2-Chloro-6-[(3,3-difluoropyrrolidin-1-yl)carbonyl]phenyl}-1H-1,2,4-triazol-3-yl)methyl]-5-(4-chlorophenyl)-4-[(2R)-3,3,3-trifluoro-2-hydroxypropyl]-2,4-dihydro-3H-1,2,4-triazol-3-one] | 440 | 50.0 | – | 22000
O=C(NC1CC(F)(F)C1)c1cccc(Cl)c1-n1cnc(Cn2nc(-c3ccc(Cl)cc3)n(C[C@@H](O)C(F)(F)F)c2=O)n1 [Example 399, 3-Chloro-2-[3-({3-(4-chlorophenyl)-5-oxo-4-[(2R)-3,3,3-trifluoro-2-hydroxypropyl]-4,5-dihydro-1H-1,2,4-triazol-1-yl}methyl)-1H-1,2,4-triazol-1-yl]-N-(3,3-difluorocyclobutyl)benzamide] | 190 | 16.6 | – | 3150
O=C(c1cccc(Cl)c1-n1cnc(Cn2nc(-c3ccc(Cl)cc3)n(C[C@@H](O)C(F)(F)F)c2=O)n1)N1CCCCC1 [Example 401, 5-(4-Chlorophenyl)-2-({1-[2-chloro-6-(piperidin-1-ylcarbonyl)phenyl]-1H-1,2,4-triazol-3-yl}methyl)-4-[(2R)-3,3,3-trifluoro-2-hydroxypropyl]-2,4-dihydro-3H-1,2,4-triazol-3-one] | 240 | 41.5 | – | 9950
O=C(c1cccc(Cl)c1-n1cnc(Cn2nc(-c3ccc(Cl)cc3)n(C[C@@H](O)C(F)(F)F)c2=O)n1)N1CCOCC1 [Example 402, 2-({1-[2-Chloro-6-(morpholin-4-ylcarbonyl)phenyl]-1H-1,2,4-triazol-3-yl}methyl)-5-(4-chlorophenyl)-4-[(2R)-3,3,3-trifluoro-2-hydroxypropyl]-2,4-dihydro-3H-1,2,4-triazol-3-one] | 435 | 73.6 | – | 32000
O=C(NC1(C(F)(F)F)CC1)c1cccc(Cl)c1-n1cnc(Cn2nc(-c3ccc(Cl)cc3)n(C[C@@H](O)C(F)(F)F)c2=O)n1 [Example 403, 3-Chloro-2-[3-({3-(4-chlorophenyl)-5-oxo-4-[(2R)-3,3,3-trifluoro-2-hydroxypropyl]-4,5-dihydro-1H-1,2,4-triazol-1-yl}methyl)-1H-1,2,4-triazol-1-yl]-N-[1-(trifluoromethyl)cyclopropyl]benzamide] | 74.5 | 77.9 | – | 5800
O=C(c1cccc(Cl)c1-n1cnc(Cn2nc(-c3ccc(Cl)cc3)n(C[C@@H](O)C(F)(F)F)c2=O)n1)N1CCC[C@@H]1C(F)(F)F [Example 404, 5-(4-Chlorophenyl)-2-{[1-(2-chloro-6-{[(2R)-2-(trifluoromethyl)pyrrolidin-1-yl]carbonyl}phenyl)-1H-1,2,4-triazol-3-yl]methyl}-4-[(2R)-3,3,3-trifluoro-2-hydroxypropyl]-2,4-dihydro-3H-1,2,4-triazol-3-one] | 315 | 36.5 | – | 11500
CC1(NC(=O)c2cccc(Cl)c2-n2cnc(Cn3nc(-c4ccc(Cl)cc4)n(C[C@@H](O)C(F)(F)F)c3=O)n2)CC1 [Example 405, 3-Chloro-2-[3-({3-(4-chlorophenyl)-5-oxo-4-[(2R)-3,3,3-trifluoro-2-hydroxypropyl]-4,5-dihydro-1H-1,2,4-triazol-1-yl}methyl)-1H-1,2,4-triazol-1-yl]-N-(1-methylcyclopropyl)benzamide] | 16.5 | 615.2 | – | 10100
CC1(C)COCCN1C(=O)c1cccc(Cl)c1-n1cnc(Cn2nc(-c3ccc(Cl)cc3)n(C[C@@H](O)C(F)(F)F)c2=O)n1 [Example 407, 2-[(1-{2-Chloro-6-[(3,3-dimethylmorpholin-4-yl)carbonyl]phenyl}-1H-1,2,4-triazol-3-yl)methyl]-5-(4-chlorophenyl)-4-[(2R)-3,3,3-trifluoro-2-hydroxypropyl]-2,4-dihydro-3H-1,2,4-triazol-3-one] | 425 | 75.3 | – | 32000

Results, then the molecule that gave them:

IC50 (human V1a receptor) [nM] | ratio IC50 hV2/hV1a (human V1a receptor) | IC50 (human V2 receptor; 3 hours) [nM] | IC50 (human V2 receptor) [nM] | Compound
180 | 177.8 | – | 32000 | NC(=O)[C@H]1CC(F)(F)CN1C(=O)c1cccc(Cl)c1-n1cnc(Cn2nc(-c3ccc(Cl)cc3)n(C[C@@H](O)C(F)(F)F)c2=O)n1 [Example 409, 1-{3-Chloro-2-[3-({3-(4-chlorophenyl)-5-oxo-4-[(2R)-3,3,3-trifluoro-2-hydroxypropyl]-4,5-dihydro-1H-1,2,4-triazol-1-yl}methyl)-1H-1,2,4-triazol-1-yl]benzoyl}-4,4-difluoro-D-prolinamide]
325 | 10.2 | – | 3300 | O=C(NCCC(F)(F)F)c1cccc(Cl)c1-n1cnc(Cn2nc(-c3ccc(Cl)cc3)n(C[C@@H](O)C(F)(F)F)c2=O)n1 [Example 410, 3-Chloro-2-[3-({3-(4-chlorophenyl)-5-oxo-4-[(2R)-3,3,3-trifluoro-2-hydroxypropyl]-4,5-dihydro-1H-1,2,4-triazol-1-yl}methyl)-1H-1,2,4-triazol-1-yl]-N-(3,3,3-trifluoropropyl)benzamide]
365 | 13.3 | – | 4850 | O=C(c1cccc(Cl)c1-n1cnc(Cn2nc(-c3ccc(Cl)cc3)n(C[C@H](O)C(F)(F)F)c2=O)n1)N1CC2(COC2)C1 [Example 411, 2-({1-[2-Chloro-6-(2-oxa-6-azaspiro[3.3]hept-6-ylcarbonyl)phenyl]-1H-1,2,4-triazol-3-yl}methyl)-5-(4-chlorophenyl)-4-[(2S)-3,3,3-trifluoro-2-hydroxypropyl]-2,4-dihydro-3H-1,2,4-triazol-3-one]
140 | 14.3 | – | 2000 | O=C(NCC(F)(F)F)c1cccc(C(F)(F)F)c1-n1cnc(Cn2nc(-c3ccc(Cl)cc3)n(C[C@H](O)C(F)(F)F)c2=O)n1 [Example 412, 2-[3-({3-(4-Chlorophenyl)-5-oxo-4-[(2S)-3,3,3-trifluoro-2-hydroxypropyl]-4,5-dihydro-1H-1,2,4-triazol-1-yl}methyl)-1H-1,2,4-triazol-1-yl]-N-(2,2,2-trifluoroethyl)-3-(trifluoromethyl)benzamide]
44.5 | 80.9 | – | 3600 | CC1(NC(=O)c2cccc(C(F)(F)F)c2-n2cnc(Cn3nc(-c4ccc(Cl)cc4)n(C[C@H](O)C(F)(F)F)c3=O)n2)CC1 [Example 414, 2-[3-({3-(4-Chlorophenyl)-5-oxo-4-[(2S)-3,3,3-trifluoro-2-hydroxypropyl]-4,5-dihydro-1H-1,2,4-triazol-1-yl}methyl)-1H-1,2,4-triazol-1-yl]-N-(1-methylcyclopropyl)-3-(trifluoromethyl)benzamide]
53.5 | 28.0 | – | 1500 | O=C(NC1CC1)c1cccc(C(F)(F)F)c1-n1cnc(Cn2nc(-c3ccc(Cl)cc3)n(C[C@H](O)C(F)(F)F)c2=O)n1 [Example 415, 2-[3-({3-(4-Chlorophenyl)-5-oxo-4-[(2S)-3,3,3-trifluoro-2-hydroxypropyl]-4,5-dihydro-1H-1,2,4-triazol-1-yl}methyl)-1H-1,2,4-triazol-1-yl]-N-cyclopropyl-3-(trifluoromethyl)benzamide]
51.5 | 113.6 | – | 5850 | COC[C@H]1CCCN1C(=O)c1cccc(C(F)(F)F)c1-n1cnc(Cn2nc(-c3ccc(Cl)cc3)n(C[C@H](O)C(F)(F)F)c2=O)n1 [Example 416, 5-(4-Chlorophenyl)-2-({1-[2-{[(2R)-2-(methoxymethyl)pyrrolidin-1-yl]carbonyl}-6-(trifluoromethyl)phenyl]-1H-1,2,4-triazol-3-yl}methyl)-4-[(2S)-3,3,3-trifluoro-2-hydroxypropyl]-2,4-dihydro-3H-1,2,4-triazol-3-one]
37.5 | 8.4 | – | 315 | O=C(NC1CC(F)(F)C1)c1cccc(C(F)(F)F)c1-n1cnc(Cn2nc(-c3ccc(Cl)cc3)n(C[C@H](O)C(F)(F)F)c2=O)n1 [Example 417, 2-[3-({3-(4-Chlorophenyl)-5-oxo-4-[(2S)-3,3,3-trifluoro-2-hydroxypropyl]-4,5-dihydro-1H-1,2,4-triazol-1-yl}methyl)-1H-1,2,4-triazol-1-yl]-N-(3,3-difluorocyclobutyl)-3-(trifluoromethyl)benzamide]
